Assay results published in patent US10537563B2, “Methods for treating ocular disease using inhibitors of CSF-1R” (NOVARTIS AG, priority 2016, dated 2020).

Tests used:
smMLCK = smMLCK (Homo sapiens, UniProt Q15746); assay: In vitro kinase assay (Table 1); type: biochemical
[1] = tested on: all other BaF3 cell lines; assay: BaF3 proliferation assays, all other cell lines; type: cell-based, murine; details: Mus musculus, read-out: Cellular EC50, all other BaF3 cell lines
BaF-wt = assay: BaF3 proliferation assay; type: cell-based, murine; details: Mus musculus
CSF-1 receptor = CSF-1 receptor expression on human monocytes; type: cell-based; details: day 1 to day 3
Method: (§1) Freshly isolated human PBMCs were used to purify human monocytes by negative selection using an indirect magnetic labeling system. […] Soluble factors such as cytokines (VEGFa, IL-6 etc.) and chemokines (IL-8, MCP-1, MMP9 etc.) in the culture supernatant were measured using commercial ELISA kits. The in vitro survival of human macrophages was measured using a commercially available CellTiter-Glo® system. Most observed results were repeated in multiple donors (n>5).

BAF/Tel-TYK2-1.3/sACP = target: T1, BAF/Tel-TYK2-1.3/sACP (Homo sapiens, UniProt P29597); assay: BaF3 proliferation assay; type: cell-based, murine
T1 construct: fused on or other part: P41212 (Transcription factor ETV6)

Syk = Syk (Homo sapiens, UniProt P43405); assay: In vitro kinase assay (Table 1); type: biochemical
Insulin RK = Insulin RK (Homo sapiens, UniProt P06213); assay: In vitro kinase assay (Table 1); type: biochemical
mut_bRaf_V599E = mut_bRaf_V599E (Homo sapiens, UniProt P15056, V600E); assay: In vitro kinase assay (Table 1); type: biochemical
Pim3 = Pim3 (Homo sapiens, UniProt Q86V86); assay: In vitro kinase assay (Table 1); type: biochemical
MMP-9 = MMP-9 production by human macrophages (ELISA); type: cell-based; details: low dose (0.1 μM)
Method: as §1

Ck2alpha1 = Ck2alpha1 (Homo sapiens, UniProt P68400); assay: In vitro kinase assay (Table 1); type: biochemical
Pim2 = Pim2 (Homo sapiens, UniProt Q9P1W9); assay: In vitro kinase assay (Table 1); type: biochemical
BaF-NPM-ALK = target: T2, BaF-NPM-ALK (Homo sapiens, UniProt Q9UM73); assay: BaF3 proliferation assay; type: cell-based, murine
T2 construct: expressed in transfected cells; host or cells: BaF3 (murine pro-B cell line); the other entry of the earlier key: NPM1 (P06748, Nucleophosmin)

BAF/Tel-TRKA-Q.3/sACP = target: T3, BAF/Tel-TRKA-Q.3/sACP (Homo sapiens, UniProt P04629); assay: BaF3 proliferation assay; type: cell-based, murine
T3 construct: fused on or other part: P41212 (Transcription factor ETV6)

BAF/Tel-Syk-1.1/sACP = target: T4, BAF/Tel-Syk-1.1/sACP (Homo sapiens, UniProt P43405); assay: BaF3 proliferation assay; type: cell-based, murine
T4 construct: fused on or other part: P41212 (Transcription factor ETV6)

VEGF = assay: Interaction with VEGF versus CSF-1 receptor signaling; details: at concentrations where the signaling of the CSF-1 receptor is strongly or completely inhibited
Ron = Ron (Homo sapiens, UniProt Q04912); assay: In vitro kinase assay (Table 1); type: biochemical
BAF/Tel-FGFR2-Q1/sACP = target: T5, BAF/Tel-FGFR2-Q1/sACP (Homo sapiens, UniProt P21802); assay: BaF3 proliferation assay; type: cell-based, murine
T5 construct: fused on or other part: P41212 (Transcription factor ETV6)

BAF/Tel-JAK3-S1.2/sACP = target: T6, BAF/Tel-JAK3-S1.2/sACP (Homo sapiens, UniProt P52333); assay: BaF3 proliferation assay; type: cell-based, murine
T6 construct: fused on or other part: P41212 (Transcription factor ETV6)

PKC_alpha = PKC_alpha (Homo sapiens, UniProt P17252); assay: In vitro kinase assay (Table 1); type: biochemical
IL-8 = IL-8 production by human monocytes (ELISA); type: cell-based; details: Monocyte
Method: as §1

[2] = tested on: MCSF-dependent proliferation; assay: MCSF-dependent proliferation; type: cell-based; details: read-out: MCSF-dependent proliferation cellular EC50
PAK1 = PAK1 (Homo sapiens, UniProt Q13153); assay: In vitro kinase assay (Table 1); type: biochemical
human macrophages = assay: In vitro survival of human macrophages (CellTiter-Glo); type: cell-based; details: 1 and 10 μM
Method: as §1

FGFR2 = FGFR2 (Homo sapiens, UniProt P21802); assay: In vitro kinase assay (Table 1); type: biochemical
BAF/Tel-JAK2-1.2/sACP = target: T7, BAF/Tel-JAK2-1.2/sACP (Homo sapiens, UniProt O60674); assay: BaF3 proliferation assay; type: cell-based, murine
T7 construct: fused on or other part: P41212 (Transcription factor ETV6)

Alk = Alk (Homo sapiens, UniProt Q9UM73); assay: In vitro kinase assay (Table 1); type: biochemical
BAF/Tel-FGFR3-Q2/sACP = target: T8, BAF/Tel-FGFR3-Q2/sACP (Homo sapiens, UniProt P22607); assay: BaF3 proliferation assay; type: cell-based, murine
T8 construct: fused on or other part: P41212 (Transcription factor ETV6)

BAF/Tel-RET-Q1/sACP = target: T9, BAF/Tel-RET-Q1/sACP (Homo sapiens, UniProt P07949); assay: BaF3 proliferation assay; type: cell-based, murine
T9 construct: fused on or other part: P41212 (Transcription factor ETV6)

ZAP70 = ZAP70 (Homo sapiens, UniProt P43403); assay: In vitro kinase assay (Table 1); type: biochemical
PKC_theta = PKC_theta (Homo sapiens, UniProt Q04759); assay: In vitro kinase assay (Table 1); type: biochemical
BAF/Tel-RON-4.1/sACP = target: T10, BAF/Tel-RON-4.1/sACP (Homo sapiens, UniProt Q04912); assay: BaF3 proliferation assay; type: cell-based, murine
T10 construct: fused on or other part: P41212 (Transcription factor ETV6)

KDR = KDR (Homo sapiens, UniProt P35968); assay: In vitro kinase assay (Table 1); type: biochemical; details: KDR=VEGF receptor
Blk = Blk (Homo sapiens, UniProt P51451); assay: In vitro kinase assay (Table 1); type: biochemical
Jak2 = Jak2 (Homo sapiens, UniProt O60674); assay: In vitro kinase assay (Table 1); type: biochemical
TAK1 = TAK1 (Homo sapiens, UniProt O43318); assay: In vitro kinase assay (Table 1); type: biochemical
Ck1gamma2 = Ck1gamma2 (Homo sapiens, UniProt P78368); assay: In vitro kinase assay (Table 1); type: biochemical

KDR, sequence (P35968 20-1356, species assumed): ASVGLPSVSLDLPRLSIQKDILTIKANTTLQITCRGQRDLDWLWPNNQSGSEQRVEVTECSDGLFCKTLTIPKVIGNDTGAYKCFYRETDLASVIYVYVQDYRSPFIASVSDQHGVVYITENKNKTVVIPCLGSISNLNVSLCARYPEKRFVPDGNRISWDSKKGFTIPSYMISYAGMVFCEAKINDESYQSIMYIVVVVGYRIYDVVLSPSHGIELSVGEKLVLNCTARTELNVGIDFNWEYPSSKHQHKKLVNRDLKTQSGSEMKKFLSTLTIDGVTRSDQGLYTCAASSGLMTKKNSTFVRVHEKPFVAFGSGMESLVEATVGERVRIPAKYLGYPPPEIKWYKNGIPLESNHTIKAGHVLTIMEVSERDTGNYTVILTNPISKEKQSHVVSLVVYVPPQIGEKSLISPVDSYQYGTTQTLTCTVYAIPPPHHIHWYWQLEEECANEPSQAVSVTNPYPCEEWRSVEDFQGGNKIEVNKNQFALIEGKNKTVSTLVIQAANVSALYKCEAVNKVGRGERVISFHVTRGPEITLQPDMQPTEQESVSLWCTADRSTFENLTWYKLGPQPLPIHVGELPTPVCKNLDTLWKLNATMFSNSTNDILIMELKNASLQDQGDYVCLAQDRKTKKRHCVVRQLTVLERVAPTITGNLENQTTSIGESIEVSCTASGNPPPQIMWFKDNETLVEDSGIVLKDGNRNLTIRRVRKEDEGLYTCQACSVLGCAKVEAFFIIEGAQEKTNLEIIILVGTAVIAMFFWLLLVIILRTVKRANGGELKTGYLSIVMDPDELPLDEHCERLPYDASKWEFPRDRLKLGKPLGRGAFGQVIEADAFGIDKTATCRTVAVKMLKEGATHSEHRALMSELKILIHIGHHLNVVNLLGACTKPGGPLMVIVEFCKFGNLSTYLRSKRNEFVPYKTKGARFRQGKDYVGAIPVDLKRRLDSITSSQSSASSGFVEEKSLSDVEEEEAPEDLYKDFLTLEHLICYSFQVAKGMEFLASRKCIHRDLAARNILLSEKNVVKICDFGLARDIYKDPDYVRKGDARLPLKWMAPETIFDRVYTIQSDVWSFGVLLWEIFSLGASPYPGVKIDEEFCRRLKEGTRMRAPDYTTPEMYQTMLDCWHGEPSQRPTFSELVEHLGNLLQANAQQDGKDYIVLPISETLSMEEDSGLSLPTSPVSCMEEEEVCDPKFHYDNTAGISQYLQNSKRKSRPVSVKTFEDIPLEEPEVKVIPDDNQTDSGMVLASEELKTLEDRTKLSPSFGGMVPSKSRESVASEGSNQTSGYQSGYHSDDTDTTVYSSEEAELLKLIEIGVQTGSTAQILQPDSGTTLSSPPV
Alk, sequence (Q9UM73 19-1620, species assumed): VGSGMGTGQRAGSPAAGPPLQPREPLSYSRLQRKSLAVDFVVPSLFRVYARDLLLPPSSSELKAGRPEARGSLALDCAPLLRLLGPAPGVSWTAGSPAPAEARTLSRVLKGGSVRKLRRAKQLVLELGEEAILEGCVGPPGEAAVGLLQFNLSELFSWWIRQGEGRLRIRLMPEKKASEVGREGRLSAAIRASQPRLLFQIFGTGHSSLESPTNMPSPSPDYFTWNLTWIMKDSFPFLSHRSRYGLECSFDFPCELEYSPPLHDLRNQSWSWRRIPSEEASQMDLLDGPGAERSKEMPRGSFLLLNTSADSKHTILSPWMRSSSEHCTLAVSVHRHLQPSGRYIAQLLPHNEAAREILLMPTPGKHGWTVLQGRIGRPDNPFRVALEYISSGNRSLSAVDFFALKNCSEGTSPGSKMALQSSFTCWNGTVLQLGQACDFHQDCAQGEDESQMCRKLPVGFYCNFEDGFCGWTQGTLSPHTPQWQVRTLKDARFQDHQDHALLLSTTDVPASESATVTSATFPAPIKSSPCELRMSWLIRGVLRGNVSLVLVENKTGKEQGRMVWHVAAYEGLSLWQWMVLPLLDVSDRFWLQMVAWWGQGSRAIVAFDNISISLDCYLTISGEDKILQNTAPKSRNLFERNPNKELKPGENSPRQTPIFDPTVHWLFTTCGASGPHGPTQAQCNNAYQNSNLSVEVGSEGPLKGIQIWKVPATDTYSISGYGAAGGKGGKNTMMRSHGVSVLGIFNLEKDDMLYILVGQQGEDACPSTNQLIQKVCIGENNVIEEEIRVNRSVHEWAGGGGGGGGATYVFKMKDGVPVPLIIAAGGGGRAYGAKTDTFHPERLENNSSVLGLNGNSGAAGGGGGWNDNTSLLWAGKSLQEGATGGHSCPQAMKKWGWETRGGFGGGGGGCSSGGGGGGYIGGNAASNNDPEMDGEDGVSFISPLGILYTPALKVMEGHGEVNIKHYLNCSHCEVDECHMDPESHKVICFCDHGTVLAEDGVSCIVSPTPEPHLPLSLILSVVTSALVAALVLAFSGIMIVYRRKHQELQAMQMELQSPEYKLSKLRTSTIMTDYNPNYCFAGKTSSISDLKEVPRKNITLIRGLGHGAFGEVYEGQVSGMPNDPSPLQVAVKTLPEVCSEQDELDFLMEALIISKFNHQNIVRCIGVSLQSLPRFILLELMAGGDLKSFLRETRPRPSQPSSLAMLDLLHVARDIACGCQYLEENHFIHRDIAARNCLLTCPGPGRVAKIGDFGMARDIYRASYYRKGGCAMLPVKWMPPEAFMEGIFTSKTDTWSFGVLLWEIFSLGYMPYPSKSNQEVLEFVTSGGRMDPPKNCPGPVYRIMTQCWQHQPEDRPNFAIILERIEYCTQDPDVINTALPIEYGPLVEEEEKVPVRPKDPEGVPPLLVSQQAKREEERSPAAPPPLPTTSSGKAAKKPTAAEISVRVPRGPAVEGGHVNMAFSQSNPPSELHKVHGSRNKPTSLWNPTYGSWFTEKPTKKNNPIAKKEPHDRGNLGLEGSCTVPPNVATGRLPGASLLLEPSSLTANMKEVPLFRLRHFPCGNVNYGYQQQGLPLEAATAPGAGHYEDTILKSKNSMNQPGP
ZAP70, sequence (P43403 whole entry, species assumed): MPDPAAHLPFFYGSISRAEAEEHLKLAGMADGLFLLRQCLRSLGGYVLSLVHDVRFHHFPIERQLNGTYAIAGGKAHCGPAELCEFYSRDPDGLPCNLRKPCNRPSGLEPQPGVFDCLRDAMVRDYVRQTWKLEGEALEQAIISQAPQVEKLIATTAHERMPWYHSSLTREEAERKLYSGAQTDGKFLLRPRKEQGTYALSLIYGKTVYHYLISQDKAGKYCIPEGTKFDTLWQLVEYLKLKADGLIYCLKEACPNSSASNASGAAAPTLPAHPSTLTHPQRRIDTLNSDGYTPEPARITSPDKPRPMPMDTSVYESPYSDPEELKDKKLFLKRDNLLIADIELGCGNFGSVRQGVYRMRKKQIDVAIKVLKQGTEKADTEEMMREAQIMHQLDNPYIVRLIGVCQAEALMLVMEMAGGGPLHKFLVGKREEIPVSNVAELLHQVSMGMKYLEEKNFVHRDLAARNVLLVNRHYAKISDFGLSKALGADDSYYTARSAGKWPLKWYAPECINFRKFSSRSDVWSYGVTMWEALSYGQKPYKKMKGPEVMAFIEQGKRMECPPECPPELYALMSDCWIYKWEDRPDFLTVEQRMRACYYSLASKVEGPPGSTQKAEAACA
T7 sequence (O60674 849-1124 limits assumed, change not shown): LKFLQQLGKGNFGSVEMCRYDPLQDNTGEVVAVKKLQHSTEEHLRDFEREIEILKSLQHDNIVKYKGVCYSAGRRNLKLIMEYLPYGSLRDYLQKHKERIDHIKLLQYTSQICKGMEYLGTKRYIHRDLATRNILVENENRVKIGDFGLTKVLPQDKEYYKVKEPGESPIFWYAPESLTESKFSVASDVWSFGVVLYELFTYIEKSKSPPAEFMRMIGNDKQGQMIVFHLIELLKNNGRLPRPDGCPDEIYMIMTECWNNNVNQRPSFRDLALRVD
FGFR2, sequence (P21802 22-821, species assumed): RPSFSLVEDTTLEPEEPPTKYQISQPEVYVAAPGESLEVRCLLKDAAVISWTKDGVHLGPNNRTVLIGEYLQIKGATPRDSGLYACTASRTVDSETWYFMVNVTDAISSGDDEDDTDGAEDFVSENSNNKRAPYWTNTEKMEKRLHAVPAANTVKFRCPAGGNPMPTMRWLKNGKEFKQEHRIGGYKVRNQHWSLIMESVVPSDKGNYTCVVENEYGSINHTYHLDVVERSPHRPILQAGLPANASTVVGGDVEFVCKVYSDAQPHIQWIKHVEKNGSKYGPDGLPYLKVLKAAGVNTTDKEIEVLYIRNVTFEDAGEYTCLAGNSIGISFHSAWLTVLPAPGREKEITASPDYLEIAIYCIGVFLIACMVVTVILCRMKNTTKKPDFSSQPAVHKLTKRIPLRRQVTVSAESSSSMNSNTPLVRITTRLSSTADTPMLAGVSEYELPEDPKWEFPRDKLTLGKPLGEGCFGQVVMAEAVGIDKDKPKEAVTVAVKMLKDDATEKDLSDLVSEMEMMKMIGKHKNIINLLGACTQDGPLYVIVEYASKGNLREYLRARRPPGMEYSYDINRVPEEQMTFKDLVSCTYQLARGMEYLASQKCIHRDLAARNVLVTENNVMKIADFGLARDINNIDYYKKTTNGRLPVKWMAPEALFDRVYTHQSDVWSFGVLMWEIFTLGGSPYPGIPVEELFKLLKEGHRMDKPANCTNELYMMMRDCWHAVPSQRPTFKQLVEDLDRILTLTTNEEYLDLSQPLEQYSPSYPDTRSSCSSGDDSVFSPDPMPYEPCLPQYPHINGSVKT
T9 sequence (P07949 724-1016 limits assumed, change not shown): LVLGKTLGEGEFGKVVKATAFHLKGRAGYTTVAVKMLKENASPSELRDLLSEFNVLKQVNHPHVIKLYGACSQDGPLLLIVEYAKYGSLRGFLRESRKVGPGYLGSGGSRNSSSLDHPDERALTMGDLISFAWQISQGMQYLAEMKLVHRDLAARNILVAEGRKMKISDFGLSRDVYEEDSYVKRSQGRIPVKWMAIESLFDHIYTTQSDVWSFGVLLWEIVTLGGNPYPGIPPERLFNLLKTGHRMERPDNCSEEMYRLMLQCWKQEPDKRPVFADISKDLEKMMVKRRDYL

## CNC(=O)c1cc(Oc2ccc3nc(NC4CCCCC4O)sc3c2)ccn1 (stereo not shown) [Compound (I)]
smMLCK
  IC50: > 10 µM
[1]
  EC50: > 10 µM
BaF-wt
  EC50: > 10 µM
CSF-1 receptor
  CSF-1 receptor expression on human monocytes: increased
BAF/Tel-TYK2-1.3/sACP
  EC50: > 10 µM
Syk
  IC50: > 10 µM
Insulin RK
  IC50: > 10 µM
mut_bRaf_V599E
  IC50: > 25 µM
Pim3
  IC50: > 25 µM
MMP-9
  MMP-9 production by human macrophages: downregulated
Ck2alpha1
  IC50: > 10 µM
Pim2
  IC50: > 25 µM
BaF-NPM-ALK
  EC50: > 10 µM
BAF/Tel-TRKA-Q.3/sACP
  EC50: > 10 µM
BAF/Tel-Syk-1.1/sACP
  EC50: > 10 µM
VEGF
  interaction with VEGF: not to interact strongly
Ron
  IC50: > 10 µM
BAF/Tel-FGFR2-Q1/sACP
  EC50: > 10 µM
BAF/Tel-JAK3-S1.2/sACP
  EC50: > 10 µM
PKC_alpha
  IC50: > 10 µM
IL-8
  inhibition at 0.05 µM: 7 to 90%
[2]
  EC50: < 0.071 µM
PAK1
  IC50: > 25 µM
Human macrophages
  viability of human macrophages (CTG values and light microscope pictures): decreased the viability
FGFR2
  IC50: > 10 µM
BAF/Tel-JAK2-1.2/sACP
  EC50: > 10 µM
Alk
  IC50: > 10 µM
BAF/Tel-FGFR3-Q2/sACP
  EC50: > 10 µM
BAF/Tel-RET-Q1/sACP
  EC50: > 10 µM
ZAP70
  IC50: > 10 µM
PKC_theta
  IC50: > 10 µM
BAF/Tel-RON-4.1/sACP
  EC50: > 10 µM
KDR
  IC50: > 25 µM
Blk
  IC50: > 10 µM
Jak2
  IC50: > 25 µM
TAK1
  IC50: > 10 µM
Ck1gamma2
  IC50: > 10 µM
